# Assay results reported in paper PMC8230315, “A Pan-Inhibitor for Protein Arginine Methyltransferase Family Enzymes” (Biomolecules, 2021).
# Tests used:
# [1] = molecular target: T1, PRMT8 (Homo sapiens, UniProt Q9NR22); test: HotSpot radioisotope 3H-AdoMet methyltransferase assay, PRMT8; assay type: biochemical
# T1 construct: purchased Reaction Biology
# Method: (§1) Future studies will focus on obtaining structural information of II757 bound to PRMTs to inform how to connect to a substrate portion to increase both potency and selectivity for each PRMT.
# (§2) Figure 6 Selectivity of II757 against the panel of PRMTs. II757 was tested in 10 doses with threefold serial dilution in the HotSpot methyltransferase assay at reaction biology. TEXT PRINTED IN THE PICTURE: II757: IC50 (nM) PRMT1: 16.4; IC50 (nM) PRMT3: 321; IC50 (nM) PRMT4: 5.05; IC50 (nM) PRMT5/MEP50 Complex: 18.2; IC50 (nM) PRMT5 (C449S)/MEP50: 36.6; IC50 (nM) PRMT6: 30.5; IC50 (nM) PRMT7: 555; IC50 (nM) PRMT8: 32.1
# [2] = tested on: NNMT; test: Selectivity SAHH-coupled fluorescence assay, NNMT; assay type: biochemical
# Text: (§3) We chose the top four potent compounds (6b and 6l–n) to investigate their selectivities against several in-house methyltransferases including protein arginine methyltransferase TbPRMT7, two members of the protein lysine methyltransferase PKMT (G9a and SETD7), protein N-terminal methyltransferase 1 (NTMT1), and a small molecule methyltransferase nicotinamide N-methyltransferase (NNMT), all of which have a SAM binding site.
# (§4) A fluorescence-based SAHH-coupled assay was applied to study the effect of the compound on methyltransferase activity of PRMT7, NTMT1, SETD7, G9a, NNMT, and SAHH. For PRMT7, the assay was performed in a final well volume of 100 μL: 25 mM Tris (pH = 7.5), 50 mM KCl, 0.01% Triton X-100, 5 μM SAHH, 0.2 μM PRMT7, 3 μM AdoMet, and 15 μM ThioGlo1. After incubation for 10 min with the inhibitor, reactions were initiated by the addition of 60 μM H4-21 peptide, and the reaction was monitored for 15 min. […] After incubation for 10 min with the inhibitor, reactions were initiated by the addition of 0.5 μM GPKRIA peptide, and the reaction was monitored for 15 min. […] After incubation for 10 min with the inhibitor, reactions were initiated by the addition of 90 μM H3-21 peptide, and the reaction was monitored for 15 min. […] After incubation for 10 min with the inhibitor, reactions were initiated by the addition of 10 μM nicotinamide, and the reaction was monitored for 18 min. […]
# [3] = tested on: histone H4 Arg3 asymmetric dimethylation (H4R3me2a); test: Cellular arginine methylation assay, Western blot in HEK293 cells; assay type: cell-based; details: 48 h, at 10 µM
# Method: Furthermore, we proceeded to investigate the inhibitory effects of II757 on the methylation level of histone H4 Arg3 via Western blotting to check its cellular inhibition. […] Future studies will focus on tethering this moiety with reported substrate-competitive inhibitors to enhance the selectivity and cellular potency.
# HEK293 cell line was cultured in DMEM media supplemented with 10% FBS and 1% antibiotic-antimycotic (Gibco, Fisher, Waltham, MA, USA). The cells were maintained in a tissue culture dish (Falcon 353003, Fisher, Waltham, MA, USA) until seeding at a density of 0.03 × 10^6 cells/mL into a 24-well tissue culture plate (Falcon 353047, Fisher, Waltham, MA, USA). The cells were incubated overnight at 37 °C in 5% CO2 with the lid on. They were then treated with the inhibitors at different concentrations for 48 h. […]
# The protein was quantified using BCA (Pierce BCA Protein Assay Kit, 23225, Fisher, Waltham, MA, USA) and equal amounts of protein were resolved by SDS-PAGE electrophoresis and blotted on Transfer membrane (Immun-Blot PVDF Membranes, Bio-Rad, Hercules, CA, USA Bio-Rad, 1620177). […] The membranes were washed three times with 1X TBST for 5 min each, and the proteins were detected by ECL (Bio-Rad, Hercules, CA, USA).
# [4] = molecular target: PRMT1 (Homo sapiens, UniProt Q99873); test: HotSpot radioisotope 3H-AdoMet methyltransferase assay (Reaction Biology), PRMT1; assay type: biochemical
# Method: as §1, §2
# [5] = tested on: NTMT1; test: Selectivity SAHH-coupled fluorescence assay, NTMT1; assay type: biochemical
# Text: as §3, §4
# Sequence of PRMT1 (Q99873 whole entry, species assumed): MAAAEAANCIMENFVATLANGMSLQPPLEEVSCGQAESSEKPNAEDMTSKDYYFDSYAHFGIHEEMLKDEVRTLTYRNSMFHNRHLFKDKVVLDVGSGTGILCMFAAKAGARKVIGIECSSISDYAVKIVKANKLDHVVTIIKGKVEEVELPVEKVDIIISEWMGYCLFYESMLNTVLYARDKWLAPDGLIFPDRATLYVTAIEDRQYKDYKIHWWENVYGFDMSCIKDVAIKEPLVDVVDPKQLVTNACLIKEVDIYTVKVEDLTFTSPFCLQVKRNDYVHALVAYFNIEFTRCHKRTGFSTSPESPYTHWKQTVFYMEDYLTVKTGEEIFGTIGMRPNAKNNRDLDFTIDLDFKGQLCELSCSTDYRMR
# T1 sequence (Q9NR22 whole entry): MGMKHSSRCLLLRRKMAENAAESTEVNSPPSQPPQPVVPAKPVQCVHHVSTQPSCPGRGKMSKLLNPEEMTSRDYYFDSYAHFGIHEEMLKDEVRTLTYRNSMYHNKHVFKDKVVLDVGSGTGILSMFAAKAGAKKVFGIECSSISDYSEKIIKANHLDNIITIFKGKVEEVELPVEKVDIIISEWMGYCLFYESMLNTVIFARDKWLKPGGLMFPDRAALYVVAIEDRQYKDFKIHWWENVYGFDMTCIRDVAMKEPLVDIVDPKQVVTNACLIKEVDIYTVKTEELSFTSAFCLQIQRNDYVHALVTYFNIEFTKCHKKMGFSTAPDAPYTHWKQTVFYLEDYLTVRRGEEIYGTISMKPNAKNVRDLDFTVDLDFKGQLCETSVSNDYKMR
compound,measurement,setting,value
"N=C(NCCCSC[C@H]1O[C@@H](n2cnc3c(N)ncnc32)[C@H](O)[C@@H]1O)Nc1cccc(Br)c1 [Compound 6l, 1-(3-((((2S,3S,4R,5R)-5-(6-amino-9H-purin-9-yl)-3,4-dihydroxytetrahydrofuran-2-yl)methyl)thio)propyl)-3-(3-bromophenyl)guanidine]",IC50,[1],32.1 nM
same,selectivity over NNMT,[2],over 1000 fold
same,H4R3me2a level,[3],decrease
same,IC50,[4],16.4 nM
same,selectivity over NTMT1,[5],over 1000 fold
